Test results: patent US9187518B2, “Antiangiogenic brassinosteroid compounds” (CONSEJO NACIONAL DE INVESTIGACIONES CIENTIFICAS Y TECNICAS …, priority 2011, dated 2015)

Assays:
[1] = test system: TNF-α; test: TNF-α secretion in LPS-activated macrophages; assay type: cell-based; details: Macrophage, read-out: inhibitory concentration 50% (IC50), TNF-α secretion
[2] = test system: HUVEC cells; test: Capillary tube formation on a Matrigel; assay type: cell-based, human; details: for reduction of tube formation vs untreated control: not statistically significant
Experimental: The formation of capillary tube like structures by HUVEC cells was analyzed on 24-well cell culture plates coated with an extracellular membrane matrix (Matrigel; BD Biosciences).
Matrigel was thawed at 4° C. Using precooled plates and tips, 100 μl/well of Matrigel was distributed and allowed to gelify at 37° C. for at least 30 min. Cells were seeded on the polymerized Matrigel (5 to 8×10^4 cells/well). The plate was incubated at 37° C., and tube formation was observed under a optic inverted microscope. Digital pictures were taken at different times with a camera. Tubular structures were quantified by manual counting of low power fields (25×) and inhibition percentage was expressed using untreated wells as 100%.
The formation of capillary tube-like structures by HUVEC cells was analyzed on 24-well cell culture plates coated with an extracellular membrane matrix (Matrigel; BD Biosciences). Matrigel was thawed at 4° C. Using precooled plates and tips, 100 μl/well of Matrigel was distributed and allowed to gelify at 37° C. for at least 30 min. Cells were seeded on the polymerized Matrigel (5 to 8×10^4 cells/well) in absence and presence of concentrations of 20 μM and 40 μM of each compound. The plate was incubated at 37° C., and tube formation was observed under an optic inverted microscope. Compound 1 was used as positive control.

[3] = test system: HUVECs; test: Cell invasion assay (transwell, IL-6 stimulated); assay type: cell-based; details: Homo sapiens, HUVEC, 100 ng/ml IL-6, 24 h, read-out: inhibition of HUVECs invasion through the filter
Experimental: HUVECs' invasion was evaluated using 24-well transwell cell culture chambers with 8 μm pore polycarbonate filter inserts. Cultured HUVECs were trypsinized and suspended in Medium 200 supplemented with LSGS at a concentration of 8×10^5 cells/ml. A total of 4×10^4 of cell suspension was applied to insert filters. We used 100 ng/ml of IL-6 to stimulate cell migration through the inserts. For that, we dispensed 600 μl of medium alone or with the stimulus in the lower chamber, which was then incubated for 24 h at 37° C. to allow cell migration. The insert was removed and migrated cells on the wells were fixed and stained with crystal violet. The wells were examined under a microscope. Migration was quantified by measuring the total stained cells in every well.

[4] = test system: HSV-1; test: Murine model of HSV-1 corneal infection (herpetic stromal keratitis, HSK); assay type: in vivo, mice
[5] = test system: NF-κB p65 subunit; test: NF-κB p65 nuclear translocation in HSV-1 infected IOBA-NHC and HCLE cells (IFI); assay type: cell-based, human; details: 40 μM
Experimental: IOBA-NHC and HCLE cells monolayers grown on coverslips in 24-well plates were infected with 0.2 ml of HSV-1 KOS (m.o.i.=1) and incubated 1 h at 37° C. Then, the inoculums were removed and cells were coated with a DMEM/F12 without SFB, for 24 h at 37° C.
After incubation, cells were fixed in methanol at −20° C. for 10 min, and processed for indirect immunofluorescence (IFI) with antibodies directed against the glycoprotein D (gD) of HSV-1 and/or the p65 subunit of NF-κB. […]
(§1) The images obtained with a 40× magnification were imported into NIH Image J 1.34s program (designed by Wayne Rasband, NIMH, Bethesda). […] We analyzed the total and nuclear fluorescence of the individual cells and a mean fluorescence density was obtained for each. To compare the distribution of fluorescence within the cell, the results were analyzed in a spreadsheet (Excel®). The total fluorescence intensity or nuclear density was calculated as the total or nuclear average per total or nuclear area, respectively. Then, we calculated the percentage of nuclear intensity or the percentage of nuclear intensity with respect to the total intensity for each cell. Non-stimulated cells were processed to establish a baseline of nuclear fluorescence (cut-off value). […]

[6] = test system: human conjunctival cells; test: Cytotoxicity assay, conjunctival cells; assay type: cell-based
Experimental: (§2) Cell viability was determined as previously reported. The absorbance of each well was measured on a Eurogenetics MPR-A 4i microplate reader using a test wavelength of 570 nm and a reference wavelength of 630 nm. Results were expressed as a percentage of absorbance of treated cells with respect to untreated ones. The CC50 was defined as the concentration of compound that caused 50% reduction in cell viability.

[7] = test system: NF-κB p65 subunit; test: NF-κB p65 nuclear translocation in LPS-stimulated J774A.1 cells (IFI); assay type: cell-based, murine; details: J774A.1 induced with LPS 8 h, 40 μM (LPS only 79.4±1.2)
Experimental: J774A.1 cells were grown on coverslips in 24-well plates and stimulated with 100 ng/ml LPS (Sigma) in RPMI without SFB, for 8 h at 37° C.
After incubation, cells were fixed in methanol at −20° C. for 10 min, and processed for indirect immunofluorescence (IFI) with antibodies directed against the glycoprotein D (gD) of HSV-1 and/or the p65 subunit of NF-κB. After three washes with PBS, the coverslips were inverted on a drop of a 1/100 dilution of the first antibody, mouse monoclonal anti-gD and/or rabbit polyclonal anti p65 (Santa Cruz Biotechnology) and incubated for 30 min at 37° C., and then subjected to three additional washes with PBS. […]
as §1, with “cell.” for “cell. Non-stimulated cells were processed to establish a baseline of nuclear fluorescence (cut-off value).”

[8] = test system: human corneal cells; test: Cytotoxicity assay, corneal cells; assay type: cell-based
Experimental: as §2

[9] = test system: IL-8; test: IL-8 secretion in epithelial cells (ELISA); assay type: cell-based, human

Which IC50 [1] does the source give for `CC[C@@H](C(C)C)[C@H](O)[C@@H](O)[C@@H](C)[C@H]1CC[C@H]2[C@@H]3CCC4=CC(=O)CC[C@]4(C)[C@H]3CC[C@]12C` [Compound 1, (22S,23S)-22,23-dihydroxystigmast-4-en-3-one] here?
The IC50 was 7 µM.

What about the “reduction of tube formation vs untreated control” value ([2]; 2.5 μM, 24 h) of the same compound?
The value was 17.3%.

What about the “reduction of tube formation vs untreated control” value ([2]; 5 μM, 24 h) of the same compound?
Its value is 25.9%.

What about the “reduction of the tube-like network” value ([2]; 10 μM, 24 h) of the same compound?
Its value is 59.8%.

What about the “formation of capillary tube like structures” value ([2]; 20 μM and 40 μM, comparative assay) of the same compound?
Its value is “showed inhibitory activity”.

And the “reduction of the tube-like network” value ([2]; 20 μM, 24 h)?
The value was 90.7%.

And the “inhibition of tube formation” value ([2]; 50 μM, 24 h)?
Its value is “complete inhibition”.

What about the “inhibition of tube formation” value ([2]; 100 μM, 24 h) of the same compound?
The value was “complete inhibition”.

And the inhibition at 40 µM ([2]; Homo sapiens, HUVEC, 40 μM, 24 h)?
The inhibition at 40 µM was 93.9%.

What about the inhibition at 10 µM ([3]; 10 μM) of the same compound?
The inhibition at 10 µM was 18.4%.

And the inhibition at 20 µM ([3]; 20 μM)?
The inhibition at 20 µM was 26.1%.

What about the inhibition at 40 µM ([3]; 40 μM) of the same compound?
Its inhibition at 40 µM is 67.5%.

What about the “antiviral activity in vivo” value ([4]; HSV-1 infected mice) of the same compound?
Its value is “no antiviral activity in vivo”.

What about the signs of keratitis ([4]; administered during the first 3 days after HSV-1 infection) of the same compound?
Its signs of keratitis is “significantly restrained”.

What about the “incidence and severity of HSK” value ([4]; murine model of HSV-1 corneal infection, in presence of replicative virus and after immune response triggered) of the same compound?
Its value is “significantly decreases”.

What about the “incidence and severity of neovascularization in infected corneas” value ([4]; treated from day 1 p.i. onwards, and at onset of disease, 6 days p.i. (data not shown)) of the same compound?
The value was “decreased”.

What about the “percentage of cells exhibiting NF-κB translocation to the nucleus” value ([5]; HCLE cells infected with HSV-1 (m.o.i.=1)) of the same compound?
The value was 5.7%.

What about the “percentage of cells exhibiting NF-κB translocation to the nucleus” value ([5]; IOBA-NHC cells infected with HSV-1 (m.o.i.=1)) of the same compound?
The value was 22.2±1.2%.

What about the cytotoxicity [6] of the same compound?
The cytotoxicity was “no cytotoxicity”.

And the “percentage of cells positive for NF-κB translocation to the nucleus” value [7]?
Its value is 87.9±0.2%.

What about the cytotoxicity [8] of the same compound?
Its cytotoxicity is “no cytotoxicity”.

And the IL-8 secretion ([9]; HSV-1 infected HCLE cells, 40 μM, 24 h (untreated infected 142.9±0.5))?
Its IL-8 secretion is 163.6 ± 0.4 pg/mL.

What about the IL-8 secretion ([9]; HSV-1 infected IOBA-NHC cells, 40 μM, 24 h (untreated infected 252±7.8)) of the same compound?
The IL-8 secretion was 471.8 ± 30 pg/mL.

What about the IL-8 secretion ([9]; uninfected HCLE cells, compound alone, vs basal level) of the same compound?
Its IL-8 secretion is “considerably increased”.

And the IL-8 secretion ([9]; uninfected IOBA-NHC cells, compound alone, vs basal level)?
The IL-8 secretion was “considerably increased”.
